Measured values: publication PMC5054527, “Mechanism of high affinity inhibition of the human urate transporter URAT1” (Scientific Reports, 2016)
Substitutions are numbered along the chain they refer to. Where two headings read alike, the source gives them in different places.

What was measured:
[1] = target: T1, r-Y365F/M481I rURAT1 double point mutant (Rattus norvegicus, UniProt Q3ZAV1, M481I/Y365F); experiment: URAT1 uric acid transport activity assay; type: cell-based
T1 construct: hURAT1 and rURAT1 are 553 amino acid proteins with 12 transmembrane segments; expressed in transfected cells; host or cells: HEK-293T
T1 sequence (Q3ZAV1 whole entry Y365F/M481I): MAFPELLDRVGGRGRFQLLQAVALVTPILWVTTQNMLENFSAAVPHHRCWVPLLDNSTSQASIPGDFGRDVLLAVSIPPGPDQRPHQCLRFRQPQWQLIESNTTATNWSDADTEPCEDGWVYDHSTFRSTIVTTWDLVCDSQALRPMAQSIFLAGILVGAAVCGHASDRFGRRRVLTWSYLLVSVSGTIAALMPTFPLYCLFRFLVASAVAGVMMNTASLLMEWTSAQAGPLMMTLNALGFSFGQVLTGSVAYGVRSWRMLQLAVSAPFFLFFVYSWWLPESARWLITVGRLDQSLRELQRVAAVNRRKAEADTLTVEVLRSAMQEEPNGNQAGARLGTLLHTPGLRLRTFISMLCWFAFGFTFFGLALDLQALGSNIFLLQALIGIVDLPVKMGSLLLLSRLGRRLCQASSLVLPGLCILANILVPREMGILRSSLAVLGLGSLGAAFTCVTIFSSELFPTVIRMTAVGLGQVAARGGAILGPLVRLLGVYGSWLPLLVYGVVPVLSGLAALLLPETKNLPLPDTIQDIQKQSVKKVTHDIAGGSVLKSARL
How it was run: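 Readout: 14C-uric acid uptake (100 μM, 10 min) in cells transiently transfected one day earlier with mutant rURAT1. Serially diluted inhibitors were added 5 min before substrate. Triplicate points, four-parameter logistic fit for IC50.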

rURAT1 = test system: rURAT1; set-up: method as in PMID 21074513; conditions: cited from earlier work
hURAT1 = conditions: cited from earlier work
[2] = target: T2, h-F365Y hURAT1 point mutant (Homo sapiens, UniProt Q96S37, F365Y); experiment: URAT1 uric acid transport activity assay; type: cell-based; conditions: for fold reduced affinity of h-F365Y compared to hURAT1: from IC50 values; for IC50: h-F365Y, 100 μM 14C-uric acid
T2 sequence (Q96S37 1-553 F365Y): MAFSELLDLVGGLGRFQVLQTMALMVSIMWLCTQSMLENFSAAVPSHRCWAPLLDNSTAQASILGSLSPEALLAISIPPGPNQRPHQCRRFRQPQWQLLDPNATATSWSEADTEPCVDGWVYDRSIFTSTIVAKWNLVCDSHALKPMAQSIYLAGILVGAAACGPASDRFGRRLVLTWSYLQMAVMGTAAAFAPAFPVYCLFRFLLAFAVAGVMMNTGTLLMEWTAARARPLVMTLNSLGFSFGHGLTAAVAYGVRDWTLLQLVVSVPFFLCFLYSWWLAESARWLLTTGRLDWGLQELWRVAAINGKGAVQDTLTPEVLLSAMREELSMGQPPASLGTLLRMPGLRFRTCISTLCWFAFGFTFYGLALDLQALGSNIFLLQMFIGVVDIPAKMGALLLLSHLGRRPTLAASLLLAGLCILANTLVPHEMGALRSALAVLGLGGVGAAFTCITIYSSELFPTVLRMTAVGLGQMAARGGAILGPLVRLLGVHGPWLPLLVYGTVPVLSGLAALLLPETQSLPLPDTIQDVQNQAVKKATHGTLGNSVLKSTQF

human URAT1 (hURAT1 WT) = target: T3, human URAT1 (hURAT1 WT) (Homo sapiens, UniProt Q96S37); experiment: URAT1 uric acid transport activity assay; type: cell-based; conditions: for IC50: hURAT1 WT, 100 μM 14C-uric acid; for fold higher affinity (potency) of hURAT1 compared to rURAT1: ratio of IC50 values, rURAT1 vs hURAT1
T3 sequence (Q96S37 1-553): T2 sequence (Q96S37 1-553 F365Y) with Y365F

[3] = target: T4, h-S35N hURAT1 point mutant (Homo sapiens, UniProt Q96S37, S35N); experiment: URAT1 uric acid transport activity assay; type: cell-based; conditions: for fold reduced sensitivity/affinity of h-S35N compared to hURAT1: from IC50 values; for IC50: h-S35N, 100 μM 14C-uric acid
T4 sequence (Q96S37 1-553 S35N): T2 sequence (Q96S37 1-553 F365Y) with S35N, Y365F

[4] = target: T5, h-M25V hURAT1 point mutant (Homo sapiens, UniProt Q96S37, M25V); experiment: URAT1 uric acid transport activity assay; type: cell-based
T5 construct: expressed in transfected cells; host or cells: HEK-293T
T5 sequence (Q96S37 whole entry M25V): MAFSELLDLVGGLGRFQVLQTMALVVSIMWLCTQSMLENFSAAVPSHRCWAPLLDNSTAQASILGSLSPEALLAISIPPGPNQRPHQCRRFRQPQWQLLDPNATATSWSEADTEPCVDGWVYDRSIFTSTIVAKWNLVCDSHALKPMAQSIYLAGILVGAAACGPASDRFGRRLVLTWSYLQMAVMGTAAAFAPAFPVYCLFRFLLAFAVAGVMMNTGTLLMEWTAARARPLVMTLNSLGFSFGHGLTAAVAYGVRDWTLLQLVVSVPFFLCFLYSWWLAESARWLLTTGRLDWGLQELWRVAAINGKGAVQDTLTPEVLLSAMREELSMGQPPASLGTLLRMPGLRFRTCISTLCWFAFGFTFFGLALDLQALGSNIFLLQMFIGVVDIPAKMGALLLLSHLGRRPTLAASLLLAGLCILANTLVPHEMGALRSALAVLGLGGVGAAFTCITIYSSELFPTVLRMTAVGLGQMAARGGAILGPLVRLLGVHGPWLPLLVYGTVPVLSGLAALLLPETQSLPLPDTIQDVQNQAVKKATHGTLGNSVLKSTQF

[5] = read-out: Km for the substrate urate

| Structure (SMILES) | IC50 [1] [µM] | IC50 (rURAT1) [µM] | IC50 (hURAT1) [µM] | fold reduced affinity of h-F365Y compared to hURAT1 [2] [fold] | IC50 ([2]; MES pH 5.5) [µM] | IC50 (human URAT1 (hURAT1 WT); MES pH 5.5) [µM] | fold higher affinity (potency) of hURAT1 compared to rURAT1 (human URAT1 (hURAT1 WT)) | fold reduced sensitivity/affinity of h-S35N compared to hURAT1 [3] [fold] | IC50 ([3]; MES pH 5.5) [µM] | Km (rURAT1; [5]) [µM] | Km (hURAT1; [5]) [µM] | IC50 ([2]; HEPES pH 7.3) [µM] | IC50 (human URAT1 (hURAT1 WT); HEPES pH 7.3) [µM] | fold reduced affinity of h-M25V compared to hURAT1 ([4]; from IC50 values) [fold] | IC50 ([4]; h-M25V, HEPES pH 7.3, 100 μM 14C-uric acid) [µM] | IC50 ([1]; r-Y365F/M481I, HEPES pH 7.3, 100 μM 14C-uric acid, read-out: IC50 (uric acid transport)) [µM] | IC50 ([3]; HEPES pH 7.3) [µM] |
| --- | --- | --- | --- | --- | --- | --- | --- | --- | --- | --- | --- | --- | --- | --- | --- | --- | --- |
| CCc1oc2ccccc2c1C(=O)c1cc(Br)c(O)c(Br)c1 [benzbromarone] | 3.5 ± 0.39 | 11.9 | […] |  |  |  |  |  |  |  |  |  |  |  |  |  |  |
| O=c1[nH]c(=O)c2[nH]c(=O)[nH]c2[nH]1 [uric acid] |  |  |  | 2.5 | 609 | 246 | greater than 10 fold | 2.1 | 507 | 1770 | 371 |  |  |  |  |  |  |
| O=C1C(CC[S+]([O-])c2ccccc2)C(=O)N(c2ccccc2)N1c1ccccc1 (centres unmarked) [sulfinpyrazone] |  |  |  | 5 |  |  | 21 fold | 7 |  |  |  | 163 ± 13 | 32 | 1.7 | 53 ± 6 | 138 ± 25 | 233 ± 54 |
